Measured values taken from ChEMBL document CHEMBL1148784, “Synthesis and structure-affinity relationships of new 4-(6-iodo-H-imidazo[1,2-a]pyridin-2-yl)-N-dimethylbenzeneamine derivatives as ligands for human beta-amyloid plaques” (J Med Chem, 2007).

target: Amyloid-beta precursor protein (Homo sapiens, UniProt P05067); assay: Binding affinity to human beta amyloid plaque in alzheimer's disease patient brain
Sequence (P05067 whole entry): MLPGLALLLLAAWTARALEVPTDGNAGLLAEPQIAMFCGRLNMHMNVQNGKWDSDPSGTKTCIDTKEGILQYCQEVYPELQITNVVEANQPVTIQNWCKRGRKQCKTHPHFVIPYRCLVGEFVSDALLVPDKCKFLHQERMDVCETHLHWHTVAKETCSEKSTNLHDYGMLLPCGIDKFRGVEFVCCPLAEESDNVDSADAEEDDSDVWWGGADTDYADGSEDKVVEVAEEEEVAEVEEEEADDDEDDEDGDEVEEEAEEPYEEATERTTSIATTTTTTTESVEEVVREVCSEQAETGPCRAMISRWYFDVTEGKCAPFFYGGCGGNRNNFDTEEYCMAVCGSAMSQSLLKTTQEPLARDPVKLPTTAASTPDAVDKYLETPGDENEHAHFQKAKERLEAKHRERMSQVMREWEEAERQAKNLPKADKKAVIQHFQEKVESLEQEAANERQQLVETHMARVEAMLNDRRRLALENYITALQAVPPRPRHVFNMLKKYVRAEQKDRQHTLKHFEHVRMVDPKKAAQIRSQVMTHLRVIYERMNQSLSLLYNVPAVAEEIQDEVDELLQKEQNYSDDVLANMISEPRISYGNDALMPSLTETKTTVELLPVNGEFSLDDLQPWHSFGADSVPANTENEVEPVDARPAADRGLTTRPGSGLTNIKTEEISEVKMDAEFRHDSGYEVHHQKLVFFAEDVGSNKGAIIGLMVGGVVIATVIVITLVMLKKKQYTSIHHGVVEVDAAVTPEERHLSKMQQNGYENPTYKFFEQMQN

SMILES	Ki
CN(C)c1ccc(-c2cn3cc(Br)cc(C#N)c3n2)cc1	> 180 nM
Cc1cc(-c2cn3cc(Br)ccc3n2)ccc1NC(=O)C(F)(F)F	> 1000 nM
CN(C)c1ccc(-c2cn3cc(Br)cc(I)c3n2)cc1	183 nM
CNc1ccc(-c2cn3cc(Br)ccc3n2)cc1C	> 1000 nM

Second part, the molecule after the results:

Ki	SMILES
> 1000 nM	CNc1ccc(-c2cn3cc(SCCO)ccc3n2)cc1C
> 1000 nM	CNc1ccc(-c2cn3cc(SCC(N)=O)ccc3n2)cc1C
> 1000 nM	CN(C(=O)C(F)(F)F)c1ccc(-c2cn3cc(Br)ccc3n2)cc1Br
> 1000 nM	CC(=O)N(C)c1ccc(-c2cn3cc(Br)ccc3n2)cc1C
